Measured values from patent US7582471B2, “Biosensor for the detection of protein kinase A, and kit comprising the same” (Korea Institute of Science and Technology, priority 2006, dated 2009).
Where no end group is shown, it is not given here. The star is where a group is joined. Biotin = O=C1N[C@H]2[C@H](CS[C@H]2CCCCC(=O)*)N1

Tests used:
[1] = target: T1, PKA (Homo sapiens, UniProt P17612); details: 132 nM PKA, even at the highest ATP concentration applied
Procedure: The effect of ATP on the PKA-PKI binding was also evaluated using an SPR analyzer, Biacore 3000 biosensor system (Biacore, U.S.A.). The surface of a CM5 sensor chip (Biacore, Applied Biosystems, U.S.A.) was activated with N-ethyl-N′-(3-dimethylaminopropyl)carbodiimide (EDC) and N-hydroxysuccinimide (NHS), and 50 μg/mL streptavidin was applied thereto, to immobilize on the surface of sensor via an amine-coupling method. […] The mixture solutions of 132 nM PKA and varying concentrations of ATP were applied at the rate of 30 μM/min for 100 seconds, and the buffer solution was then applied for 200 seconds, to obtain sensorgrams.

[2] = target: T1, PKA; details: read-out: affinity for PKA; cited from earlier work

## Biotin-LRRAALG [biotin-Ala-kemptide]
[1]
  binding of PKA to immobilized peptide (SPR): not observed
[2]
  Kd: 10 µM
